Assay results as given in patent publication US20240158446A1, “CYCLIC COMPOUND HAVING SELECTIVE INHIBITORY ACTION ON KRAS OVER HRAS AND NRAS” (CHUGAI SEIYAKU KABUSHIKI KAISHA, priority 2021, published 2024).
Read-outs that look alike come from different tables or passages of the source. Where a SMILES comes first, the peptide text is derived from it. Bridges are numbered along the chain shown (N, C = ends). [ ]: non-standard residue; d: D form. The star is where a group is joined. hPhe(3-Cl-4-CF3) = N[C@@H](CCc1ccc(C(F)(F)F)c(Cl)c1)C(=O)O; NPrPhe(4-CF3) = CCCN[C@@H](Cc1ccc(C(F)(F)F)cc1)C(=O)O; hPhe(3,4-Cl2) = N[C@@H](CCc1ccc(Cl)c(Cl)c1)C(=O)O; NMePhe(4-Me) = CN[C@@H](Cc1ccc(C)cc1)C(=O)O; NMeGly(cPent) = CN[C@H](C(=O)O)C1CCCC1; NMeD = CN[C@@H](CC(=O)O)C(=O)O; NMeL = CN[C@@H](CC(C)C)C(=O)O; Morpholide = C1CN(*)CCO1; NMeA = CN[C@@H](C)C(=O)O; Ac5c = NC1(C(=O)O)CCCC1; Aze = O=C(O)[C@@H]1CCN1; Ac4c = NC1(C(=O)O)CCC1; Sar = CNCC(=O)O

Columns and labels:
[1] = target: GDP-bound KRAS wild-type protein (Homo sapiens, UniProt P01116); assay: Binding to KRAS by surface plasmon resonance (SPR), Single Cycle Kinetics; details: GDP-bound KRAS wild-type protein, read-out: KRAS KD
[2] = target: GDP-bound NRAS wild-type protein (Homo sapiens, UniProt P01111); assay: Binding to NRAS by surface plasmon resonance (SPR), Single Cycle Kinetics; details: SPR, GDP-bound NRAS wild-type protein vs GDP-bound KRAS wild-type protein
[3] = target: GDP-bound HRAS wild-type protein (Homo sapiens, UniProt P01112); assay: Binding to HRAS by surface plasmon resonance (SPR), Single Cycle Kinetics; details: SPR, GDP-bound HRAS wild-type protein vs GDP-bound KRAS wild-type protein
[4] = SPR Single Cycle Kinetics, 1:1 binding model

GDP-bound NRAS wild-type protein, sequence (P01111 whole entry): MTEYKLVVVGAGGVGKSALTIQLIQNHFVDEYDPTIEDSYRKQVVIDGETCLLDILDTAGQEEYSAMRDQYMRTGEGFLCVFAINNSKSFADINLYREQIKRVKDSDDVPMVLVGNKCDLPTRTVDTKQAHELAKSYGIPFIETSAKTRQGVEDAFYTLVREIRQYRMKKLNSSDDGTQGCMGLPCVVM
GDP-bound KRAS wild-type protein, sequence (P01116 whole entry): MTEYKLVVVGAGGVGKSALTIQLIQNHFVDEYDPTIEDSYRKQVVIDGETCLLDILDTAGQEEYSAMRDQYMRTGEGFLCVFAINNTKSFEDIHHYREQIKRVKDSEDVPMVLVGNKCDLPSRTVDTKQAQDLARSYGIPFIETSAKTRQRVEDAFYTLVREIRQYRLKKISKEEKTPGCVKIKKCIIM
GDP-bound HRAS wild-type protein, sequence (P01112 whole entry): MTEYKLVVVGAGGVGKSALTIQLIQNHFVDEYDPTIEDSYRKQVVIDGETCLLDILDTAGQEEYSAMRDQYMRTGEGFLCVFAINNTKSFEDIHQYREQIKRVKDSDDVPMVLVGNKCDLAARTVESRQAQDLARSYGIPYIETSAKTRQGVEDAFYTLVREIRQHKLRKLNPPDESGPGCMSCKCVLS

SMILES | Kd [1, 4] | NRAS/KRAS (ratio of KD value for NRAS to KD value for KRAS) [2] | HRAS/KRAS (ratio of KD value for HRAS to KD value for KRAS) [3] | other results
CCCN1C(=O)[C@@H]2CCN2C(=O)[C@H](C)N(C)C(=O)[C@H]([C@@H](C)CC)NC(=O)[C@H](CC(C)C)N(C)C(=O)C[C@@H](C(=O)N2CCOCC2)NC(=O)[C@H](C2CCCC2)N(C)C(=O)C2(CCC2)NC(=O)[C@@H]2CCCN2C(=O)[C@H](CCc2ccc(C(F)(F)F)c(Cl)c2)NC(=O)CN(C)C(=O)[C@@H]1Cc1ccc(C(F)(F)F)cc1 [PP0344] ([NMeL]I[NMeA][Aze][NPrPhe(4-CF3)][Sar][hPhe(3-Cl-4-CF3)]P[Ac4c][NMeGly(cPent)]D-Morpholide; lactam N-11) | 1.1 nM | C (A compound having a KD ratio of 0.1 or more and less than 3 is denoted as C) | B (a compound having 3 or more and less than 10 is denoted as B) | 
CC[C@H](C)[C@@H]1NC(=O)[C@@H]2CCCCCCc3ccc(cc3)C[C@@H](C(=O)N(C)CC(=O)N[C@@H](CCc3ccc(C(F)(F)F)c(OC)c3)C(=O)N3CC4(CC4)C[C@H]3C(=O)NC3(CC(C)(C)C3)C(=O)N(C)[C@@H](C3CCCC3)C(=O)N(C)[C@H](C(=O)N(C)C)CC(=O)N2C)N2CC/C=C\C[C@@H](C2=O)N(C)C(=O)CN(C)C1=O [PP3069] |  | A (a compound having 10 or more and less than 20 is denoted as A) | B (a compound having 3 or more and less than 10 is denoted as B) | Kd ([1]; SPR, Single Cycle Kinetics): 0.034 nM
CCCN1C(=O)[C@@H]2CCN2C(=O)[C@H](C)N(C)C(=O)[C@H]([C@@H](C)CC)NC(=O)[C@H](CC(C)C)N(C)C(=O)C[C@@H](C(=O)N2CCOCC2)N(C)C(=O)[C@H](C2CCCC2)N(C)C(=O)C2(CCCC2)NC(=O)[C@@H]2CCCN2C(=O)[C@H](CCc2ccc(Cl)c(Cl)c2)NC(=O)CN(C)C(=O)[C@@H]1Cc1ccc(C(F)(F)F)cc1 [PP0227] ([NMeL]I[NMeA][Aze][NPrPhe(4-CF3)][Sar][hPhe(3,4-Cl2)]P[Ac5c][NMeGly(cPent)][NMeD]-Morpholide; lactam N-11) | 0.26 nM | C (A compound having a KD ratio of 0.1 or more and less than 3 is denoted as C) | B (a compound having 3 or more and less than 10 is denoted as B) | 
CCC[C@H]1C(=O)N[C@@H]([C@@H](C)CC)C(=O)N(C)CC(=O)N(C)[C@H]2C/C=C\CCN(C2=O)[C@@H](Cc2ccc(C(F)(F)F)cc2)C(=O)N(C)CC(=O)N[C@@H](CCc2ccc(C(F)(F)F)c(OC)c2)C(=O)N2C[C@H](OCC)C[C@H]2C(=O)NC2(CC(C)(C)C2)C(=O)N(C)[C@@H](C2CCCC2)C(=O)N(C)[C@H](C(=O)N(C)C)CC(=O)N1C [PP1560] |  |  |  | Kd ([1]; SPR, Single Cycle Kinetics, 1:1 binding model): 0.069 nM; NRAS/KRAS (ratio of KD value for NRAS to KD value for KRAS) ([2]; KD ratio class): A (a compound having 10 or more and less than 20 is denoted as A); HRAS/KRAS (ratio of KD value for HRAS to KD value for KRAS) ([3]; KD ratio class): B (a compound having 3 or more and less than 10 is denoted as B)
CC[C@H](C)[C@@H]1NC(=O)[C@H](CC(C)C)N(C)C(=O)C[C@@H](C(=O)N2CCOCC2)N(C)C(=O)[C@H](C2CCCC2)N(C)C(=O)C2(CCCC2)NC(=O)[C@@H]2CCCN2C(=O)[C@H](CCc2ccc(C(F)(F)F)c(Cl)c2)NC(=O)CN(C)C(=O)[C@H](Cc2ccc(C)cc2)N(C)C(=O)CN(C)C(=O)CN(C)C1=O [PP0018] ([NMeL]I[Sar][Sar][NMePhe(4-Me)][Sar][hPhe(3-Cl-4-CF3)]P[Ac5c][NMeGly(cPent)][NMeD]-Morpholide; lactam N-11) | 0.077 nM | C (A compound having a KD ratio of 0.1 or more and less than 3 is denoted as C) | C (A compound having a KD ratio of 0.1 or more and less than 3 is denoted as C) | 
CCC[C@H]1C(=O)N[C@@H]([C@@H](C)CC)C(=O)N(C)CC(=O)N(C)[C@H]2C/C=C\CCN(C2=O)[C@@H](Cc2ccc(C)cc2)C(=O)N(C)CC(=O)N[C@@H](CCc2cc(F)c(C(F)(F)F)c(F)c2)C(=O)N2C[C@H](OCC)C[C@H]2C(=O)NC2(CC(C)(C)C2)C(=O)N(C)[C@@H](CC(F)(F)F)C(=O)N(C)[C@H](C(=O)N(C)C)CC(=O)N1C [PP2993] |  | A (a compound having 10 or more and less than 20 is denoted as A) | A (a compound having 10 or more and less than 20 is denoted as A) | Kd ([1]; SPR, Single Cycle Kinetics): 0.43 nM
CC[C@H](C)[C@@H]1NC(=O)[C@H](CC(C)C)N(C)C(=O)C[C@@H](C(=O)N(C)C)N(C)C(=O)[C@H](C2CCCC2)N(C)C(=O)C2(CCC2)NC(=O)[C@@H]2CC(F)(F)CN2C(=O)[C@H](CCc2cc(F)c(C(F)(F)F)c(F)c2)NC(=O)CN(C)C(=O)[C@H](Cc2ccc(C(F)(F)F)cc2)N2CCCCC[C@@H](C2=O)N(C)C(=O)CN(C)C1=O [PP0466] | 0.2 nM |  |  | NRAS/KRAS (ratio of KD value with respect to NRAS to KD value with respect to KRAS) [2]: B (a compound having 3 or more and less than 10 is denoted as B); HRAS/KRAS (ratio of KD value with respect to HRAS to KD value with respect to KRAS) [3]: B (a compound having 3 or more and less than 10 is denoted as B)
